How the values were obtained:
Details in all cases: 48 h
NOMO1 [1] = experiment: AUC of viability dose-response curve (% viability x log10 dose units); higher = less sensitive
Procedure, shortened: (§1)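 Over 48 h at 37°C, leukemia cells in 1536-well plates (500 or 1000 cells/well), adapted to each medium, received library compounds in DMSO at 11 threefold doses from 47 μM to 0.79 nM. CellTiter-Glo One luminescence, normalised per plate to DMSO and cell-free wells, was fitted by a four-parameter log-logistic function of log10 dose. The area under the curve was then integrated by trapezoidal rule, after scaling curves above full viability and removing those that failed quality control.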

P12-Ichikawa [2] = experiment: as above
Procedure, shortened: as §1

SEM cells [3] = experiment: as above
Procedure, shortened: as §1

NOMO1 [4] = experiment: cell viability relative to DMSO control; higher = less cytotoxic
Procedure, shortened: (§2)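 Library compounds in DMSO were pin-dosed into 1536-well plates (5 μl) holding NOMO1 or SEM (500 cells/well) or P12-Ichikawa (1000 cells/well) leukemia cells, across an 11-point threefold series of 47 μM to 0.79 nM. Each cell line had been adapted for at least four passages in each medium. CellTiter-Glo One luminescence was read after 48 h at 37°C. Viability is the per-plate percentage relative to DMSO wells, with cell-free wells as background.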

P12-Ichikawa [5] = experiment: as above
Procedure, shortened: as §2

SEM cells [6] = experiment: as above
Procedure, shortened: as §2

COc1cc2c(Nc3ccc(Cl)c(Cl)c3F)ncnc2cc1OC[C@@H]1C[C@@H]2CN(C)C[C@@H]2C1
AUC of viability dose-response curve
Details | NOMO1 [1] | P12-Ichikawa [2] | SEM cells [3]
HPLM + 10% dialyzed FBS | 421 | 444 | 384
RPMI 5 mM glucose + 10% FBS | 450 | 453 | 443
RPMI 5 mM glucose + 10% dialyzed FBS | 447 | 444 | 438

cell viability [%]
Details | NOMO1 [4] | P12-Ichikawa [5] | SEM cells [6]
HPLM + 10% dialyzed FBS, 0.000781 µM | 97.3 | 95.2 | 88.5
HPLM + 10% dialyzed FBS, 0.00234 µM | 99 | 102 | 78.5
HPLM + 10% dialyzed FBS, 0.00702 µM | 106 | 108 | 86.2
HPLM + 10% dialyzed FBS, 0.0211 µM | 104 | 112 | 91.6
HPLM + 10% dialyzed FBS, 0.0632 µM | 128 | 100 | 94.5
HPLM + 10% dialyzed FBS, 0.19 µM | 127 | 110 | 94.5
HPLM + 10% dialyzed FBS, 0.569 µM | 93.3 | 104 | 94.4
HPLM + 10% dialyzed FBS, 1.71 µM | 101 | 104 | 91.5
HPLM + 10% dialyzed FBS, 5.12 µM | 96.6 | 108 | 87.8
HPLM + 10% dialyzed FBS, 15.4 µM | 45.6 | 81.8 | 40
HPLM + 10% dialyzed FBS, 46.1 µM | 6.66 | 5.15 | 3.92
RPMI 5 mM glucose + 10% FBS, 0.000781 µM | 93.7 | 95.3 | –
RPMI 5 mM glucose + 10% FBS, 0.00234 µM | 104 | 102 | –
RPMI 5 mM glucose + 10% FBS, 0.00702 µM | 115 | 98 | –
RPMI 5 mM glucose + 10% FBS, 0.0211 µM | 106 | 105 | –
RPMI 5 mM glucose + 10% FBS, 0.0632 µM | 103 | 109 | –
RPMI 5 mM glucose + 10% FBS, 0.19 µM | 115 | 112 | –
RPMI 5 mM glucose + 10% FBS, 0.569 µM | 110 | 114 | –
RPMI 5 mM glucose + 10% FBS, 1.71 µM | 109 | 110 | –
RPMI 5 mM glucose + 10% FBS, 5.12 µM | 111 | 119 | –
RPMI 5 mM glucose + 10% FBS, 15.4 µM | 97.8 | 106 | –
RPMI 5 mM glucose + 10% FBS, 46.1 µM | 6.22 | 5.73 | –
RPMI 5 mM glucose + 10% dialyzed FBS, 0.000781 µM | 93.4 | 108 | 88.8
RPMI 5 mM glucose + 10% dialyzed FBS, 0.00234 µM | 116 | 114 | 91.6
RPMI 5 mM glucose + 10% dialyzed FBS, 0.00702 µM | 111 | 108 | 110
RPMI 5 mM glucose + 10% dialyzed FBS, 0.0211 µM | 112 | 113 | 103
RPMI 5 mM glucose + 10% dialyzed FBS, 0.0632 µM | 112 | 117 | 121
RPMI 5 mM glucose + 10% dialyzed FBS, 0.19 µM | 104 | 117 | 91.1
RPMI 5 mM glucose + 10% dialyzed FBS, 0.569 µM | 107 | 115 | 103
RPMI 5 mM glucose + 10% dialyzed FBS, 1.71 µM | 105 | 111 | 95.5
RPMI 5 mM glucose + 10% dialyzed FBS, 5.12 µM | 111 | 113 | 93.7
RPMI 5 mM glucose + 10% dialyzed FBS, 15.4 µM | 92.1 | 89.6 | 74.7
RPMI 5 mM glucose + 10% dialyzed FBS, 46.1 µM | 4.94 | 4.74 | 3.96

Clc1ccccc1C(c1ccccc1)(c1ccccc1)n1ccnc1
AUC of viability dose-response curve
Details | NOMO1 [1] | P12-Ichikawa [2] | SEM cells [3]
HPLM + 10% dialyzed FBS | 451 | 448 | 425
RPMI 5 mM glucose + 10% FBS | 443 | 426 | 416
RPMI 5 mM glucose + 10% dialyzed FBS | 468 | 448 | 412

cell viability [%]
Details | NOMO1 [4] | P12-Ichikawa [5] | SEM cells [6]
HPLM + 10% dialyzed FBS, 0.000781 µM | 120 | 108 | 118
HPLM + 10% dialyzed FBS, 0.00234 µM | 115 | 114 | 114
HPLM + 10% dialyzed FBS, 0.00702 µM | 125 | 107 | 126
HPLM + 10% dialyzed FBS, 0.0211 µM | 123 | 115 | 121
HPLM + 10% dialyzed FBS, 0.0632 µM | 116 | 108 | 117
HPLM + 10% dialyzed FBS, 0.19 µM | 114 | 110 | 119
HPLM + 10% dialyzed FBS, 0.569 µM | 123 | 107 | 112
HPLM + 10% dialyzed FBS, 1.71 µM | 105 | 96.7 | 55.8
HPLM + 10% dialyzed FBS, 5.12 µM | 108 | 100 | 103
HPLM + 10% dialyzed FBS, 15.4 µM | 101 | 91.7 | 104
HPLM + 10% dialyzed FBS, 46.1 µM | 78.6 | 74.8 | 73.3
RPMI 5 mM glucose + 10% FBS, 0.000781 µM | 103 | – | 117
RPMI 5 mM glucose + 10% FBS, 0.00234 µM | 122 | – | 110
RPMI 5 mM glucose + 10% FBS, 0.00702 µM | 114 | – | 126
RPMI 5 mM glucose + 10% FBS, 0.0211 µM | 122 | – | 123
RPMI 5 mM glucose + 10% FBS, 0.0632 µM | 111 | – | 118
RPMI 5 mM glucose + 10% FBS, 0.19 µM | 110 | – | 108
RPMI 5 mM glucose + 10% FBS, 0.569 µM | 114 | – | 106
RPMI 5 mM glucose + 10% FBS, 1.71 µM | 103 | – | 53.3
RPMI 5 mM glucose + 10% FBS, 5.12 µM | 95 | – | 101
RPMI 5 mM glucose + 10% FBS, 15.4 µM | 92.7 | – | 86.6
RPMI 5 mM glucose + 10% FBS, 46.1 µM | 69.1 | – | 69.6
RPMI 5 mM glucose + 10% dialyzed FBS, 0.000781 µM | 119 | 103 | –
RPMI 5 mM glucose + 10% dialyzed FBS, 0.00234 µM | 114 | 114 | –
RPMI 5 mM glucose + 10% dialyzed FBS, 0.00702 µM | 119 | 112 | –
RPMI 5 mM glucose + 10% dialyzed FBS, 0.0211 µM | 110 | 108 | –
RPMI 5 mM glucose + 10% dialyzed FBS, 0.0632 µM | 116 | 106 | –
RPMI 5 mM glucose + 10% dialyzed FBS, 0.19 µM | 117 | 110 | –
RPMI 5 mM glucose + 10% dialyzed FBS, 0.569 µM | 124 | 103 | –
RPMI 5 mM glucose + 10% dialyzed FBS, 1.71 µM | 104 | 102 | –
RPMI 5 mM glucose + 10% dialyzed FBS, 5.12 µM | 113 | 88.6 | –
RPMI 5 mM glucose + 10% dialyzed FBS, 15.4 µM | 111 | 93.8 | –
RPMI 5 mM glucose + 10% dialyzed FBS, 46.1 µM | 80.3 | 58.5 | –
